Data on 36 compounds can be found in ChEMBL document CHEMBL5252570, “Synthesis and biological evaluation of 2,5-disubstituted furan derivatives containing 1,3-thiazole moiety as potential α-glucosidase inhibitors” (Bioorg Med Chem Lett, 2023).

Data set [1] has as its target T1, Alpha glucosidase (Homo sapiens, UniProt O43451+P10253+P14410+Q2M2H8). In words: Inhibition of alpha glucosidase (unknown origin). It counts as protein assay.
The target in data set [2] is T1, Alpha glucosidase. The experiment in a line: Inhibition of alpha glucosidase (unknown origin) at 50 uM relative to control. Type of data set: protein assay.
Data set [3] deals with T1, Alpha glucosidase. In words: Competitive inhibition of alpha glucosidase (unknown origin) using pNPG as substrate by Lineweaver-Burk plot analysis. Type of data set: protein assay.
The target of data set [4] is T1, Alpha glucosidase. In words: Inhibition of alpha glucosidase (unknown origin) using p-nitrophenyl glucopyranoside as substrate pre incubated for 10 mins followed by substrate addition and measured after 30 mins by plate reader analysis. It counts as protein assay.
For data set [5], the target named is T1, Alpha glucosidase. The experiment in a line: Non-competitive inhibition of alpha glucosidase (unknown origin) assessed as inhibition constant using pNPG as substrate by Dixon plot analysis. It counts as protein assay.
Data set [6] can be described thus: Cytotoxicity against human HEK293 cells assessed as inhibition of cell growth at 100 uM by CCK-8 assay relative to control. It counts as toxicity, cell-based. The note with it: read-out: Activity.
A short description of data set [7]: Cytotoxicity against mouse RAW264.7 cells assessed as inhibition of cell growth at 100 uM by CCK-8 assay relative to control. It counts as toxicity, cell-based. To be noted: read-out: Activity.
Data set [8] can be described thus: Cytotoxicity against human HepG2 cells assessed as inhibition of cell growth at 100 uM by CCK-8 assay relative to control. It counts as toxicity, cell-based. To be noted: read-out: Activity.
Data set [9] addresses T1, Alpha glucosidase. The experiment in a line: Potency index, […] for inhibition of alpha glucosidase (unknown origin). Type of data set: protein assay.

Calls of active or inactive are those of the source. The calls are words filed in the database; no cut-off is given here.

With `O=C(Sc1nccs1)c1ccc(-c2ccccc2Cl)o1`, in [1], the IC50 is 1.935 µM. This compound yielded an inhibition in data set [2] of 88.2%.
The matching figures for `O=C(Nc1nccs1)c1ccc(-c2c(F)cccc2F)o1`: 148.2 µM and 21.6%.
Turning to `O=C(Sc1nccs1)c1ccc(-c2cccc([N+](=O)[O-])c2)o1`, the inhibition in data set [2] stood at 20.2%.
In turn, `COc1ccc(-c2ccc(C(=O)Sc3nccs3)o2)cc1` gave an IC50 in [1] of 14.945 µM. The same compound came in with an inhibition in [2] of 78.6%.
The matching figures for `O=C(Nc1nccs1)c1ccc(-c2ccccc2[N+](=O)[O-])o1`: 26.943 µM and 87.7%.
For `O=C(Sc1nccs1)c1ccc(-c2ccc(Br)cc2)o1` the same measures were 5.283 µM and 89.9%.
For `O=C(Sc1nccs1)c1ccc(-c2ccccc2F)o1` the same measures were 5.97 µM and 83.6%.
In turn, `O=C(Nc1nccs1)c1ccc(-c2ccccc2Cl)o1` came in with an IC50 in data set [1] of 18.33 µM. This compound registered an inhibition in data set [2] of 59.3%.
The matching figures for `O=C(Sc1nccs1)c1ccc(-c2ccc(Cl)cc2)o1`: 4.562 µM and 84.2%.
The matching figures for `O=C(Sc1nccs1)c1ccc(-c2ccccc2)o1`: 2.223 µM and 100%.
In data set [1], `COc1ccc(-c2ccc(C(=O)Nc3nccs3)o2)cc1` had an IC50 of 30.94 µM. In addition, in data set [2], the inhibition turned out to be 59%.
Regarding `O=C(Sc1nccs1)c1ccc(-c2ccc(F)cc2)o1`, the inhibition in data set [2] was 43.4%.
For `Cc1nnc(SC(=O)c2ccc(-c3cccc(F)c3)o2)s1`, the IC50 in data set [1] was determined as 0.082 µM.
As for `O=C(Nc1nccs1)c1ccc(-c2cccc(F)c2)o1`, in data set [1], the IC50 turned out to be 6.227 µM. Moreover, the inhibition in [2] came out at 88.1%.
For `Cc1ccc(-c2ccc(C(=O)Nc3nccs3)o2)cc1` the same measures were 26.495 µM and 64.6%.
Turning to `O=C(Sc1nncs1)c1ccc(-c2ccc(Cl)cc2)o1`, the IC50 in data set [1] came out at 0.186 µM.
In data set [1], `O=C(Sc1nccs1)c1ccc(-c2cccc(Cl)c2)o1` had an IC50 of 2.611 µM. The compound further had an inhibition in data set [2] of 94.4%.
For `O=C(Nc1nccs1)c1ccc(-c2ccccc2F)o1` the same measures were 19.763 µM and 87.6%.
For `O=C(Sc1nccs1)c1ccc(-c2ccc(F)cc2F)o1` the same measures were 6.935 µM and 86.1%.
In data set [2], `C[C@H]1O[C@H](O[C@H]2[C@H](O)[C@@H](O)[C@@H](O[C@H]3[C@H](O)[C@@H](O)C(O)O[C@@H]3CO)O[C@@H]2CO)[C@H](O)[C@@H](O)[C@@H]1N[C@H]1C=C(CO)[C@@H](O)[C@H](O)[C@H]1O` (stereo not given in full) returned an inhibition of 11.5%. The inhibition result in [3] is “Active”.
With `CC(C)(C)c1cc(/C=N/Nc2nc(-c3ccc(Cl)cc3)cs2)cc(C(C)(C)C)c1O`, in [4], the IC50 worked out at 18.23 µM.
Turning to `O=C(Sc1nccs1)c1ccc(-c2ccc([N+](=O)[O-])cc2)o1`, the IC50 in [1] turned out to be 8.934 µM. Further, the inhibition in data set [2] was 85.7%.
As to `O=C(Nc1nccs1)c1ccc(-c2cccc([N+](=O)[O-])c2)o1`, the IC50 in data set [1] is 4.12 µM. In [2], this compound registered an inhibition of 89.3%. Besides, in [3], the inhibition entry is “Active”. Further, the Ki in data set [5] came out at 367.24 µM. The inhibition at 100 µM in data set [6] turned out to be 28.4%; in data set [7], 16.4%; in data set [8], 13.7%.
`O=C(Nc1nccs1)c1ccc(-c2ccc(Cl)cc2)o1`: in [1], the IC50 was 14.769 µM. This compound registered an inhibition in data set [2] of 69.1%.
The compound `Cc1ccc(-c2ccc(C(=O)Sc3nccs3)o2)cc1` displayed an IC50 in data set [1] of 11.43 µM. In [2], this compound gave an inhibition of 80.4%.
`N#C/N=c1\sccn1C(=O)c1ccc(-c2cccc(Cl)c2)o1` showed an IC50 in data set [1] of 1.2 µM.
As to `O=C(Sc1nccs1)c1ccc(-c2c(F)cccc2F)o1`, the IC50 in data set [1] is 8.436 µM. In addition, the inhibition in [2] came out at 83.6%.
For `O=C(Nc1nccs1)c1ccc(-c2ccc(F)cc2F)o1` the same measures were 77.99 µM and 34.1%.
For `O=C(Nc1nccs1)c1ccc(-c2ccc([N+](=O)[O-])cc2)o1` the same measures were 4.987 µM and 91.5%.
The matching figures for `O=C(Nc1nccs1)c1ccc(-c2ccc(F)cc2)o1`: 20.717 µM and 67.4%.
With `O=C(Sc1nccs1)c1ccc(-c2ccccc2[N+](=O)[O-])o1`, the IC50 in [1] amounted to 0.645 µM. This compound registered an inhibition in data set [2] of 98.5%. Besides, in data set [9], the Ratio IC50 came out at 701. In addition, in data set [5], the Ki was determined as 2.04 µM. Moreover, the inhibition at 100 µM was found to be 53.4% in data set [6], 38.1% in data set [7] and 47.2% in data set [8].
`O=C(Nc1nccs1)c1ccc(-c2ccccc2)o1`: in data set [1], the IC50 worked out at 94.033 µM. Also, the inhibition in data set [2] turned out to be 27.3%.
The compound `O=C(Nn1c(-c2cc3ccccc3oc2=O)cs/c1=N\c1ccc(Cl)c(Cl)c1)c1ccccc1O` yielded an IC50 in data set [4] of 0.12 µM.
Regarding `O=C(Sc1nccs1)c1ccc(-c2cccc(F)c2)o1`, the IC50 in data set [1] was determined as 5.392 µM. This compound also gave an inhibition in data set [2] of 87%.
For `O=C(Nc1nccs1)c1ccc(-c2cccc(Cl)c2)o1` the same measures were 5.871 µM and 88.4%.
The compound `O=C(Nc1nccs1)c1ccc(-c2ccc(Br)cc2)o1` showed an IC50 in data set [1] of 24.125 µM. Also, the inhibition in data set [2] was found to be 74%.
